Test results reported in ChEMBL document CHEMBL1131651, “Discovery of LB30057, a benzamidrazone-based selective oral thrombin inhibitor” (Bioorg Med Chem Lett, 1998).

What was measured:
Prothrombin [1] = target: Prothrombin (Bos taurus, UniProt P00735)
Description: Compound was tested for inhibitory activity against bovine thrombin

[2] = target: Tissue-type plasminogen activator (Homo sapiens, UniProt P00750); assay: The compound was tested for inhibitory activity against tissue plasminogen activator
[3] = Compound was tested for percent of oral bioavailability at 10 […] dose in dogs; assay type: ADME, organism-based, Canis lupus familiaris; details: dog, in vivo, read-out: Bioavailabiility
Prothrombin [4] = target: Prothrombin (Homo sapiens, UniProt P00734); assay: Compound was tested for inhibitory activity against human thrombin
Coagulation factor X = Coagulation factor X (Homo sapiens, UniProt P00742); assay: The compound was tested for inhibitory activity against Coagulation factor X
[5] = Half life was evaluated in dog; assay type: ADME, organism-based, Canis lupus familiaris; details: in vivo
Plasminogen = Plasminogen (Homo sapiens, UniProt P00747); assay: The compound was tested for inhibitory activity against human plasmin
Chain of Plasminogen (P00747 97-580 limits assumed): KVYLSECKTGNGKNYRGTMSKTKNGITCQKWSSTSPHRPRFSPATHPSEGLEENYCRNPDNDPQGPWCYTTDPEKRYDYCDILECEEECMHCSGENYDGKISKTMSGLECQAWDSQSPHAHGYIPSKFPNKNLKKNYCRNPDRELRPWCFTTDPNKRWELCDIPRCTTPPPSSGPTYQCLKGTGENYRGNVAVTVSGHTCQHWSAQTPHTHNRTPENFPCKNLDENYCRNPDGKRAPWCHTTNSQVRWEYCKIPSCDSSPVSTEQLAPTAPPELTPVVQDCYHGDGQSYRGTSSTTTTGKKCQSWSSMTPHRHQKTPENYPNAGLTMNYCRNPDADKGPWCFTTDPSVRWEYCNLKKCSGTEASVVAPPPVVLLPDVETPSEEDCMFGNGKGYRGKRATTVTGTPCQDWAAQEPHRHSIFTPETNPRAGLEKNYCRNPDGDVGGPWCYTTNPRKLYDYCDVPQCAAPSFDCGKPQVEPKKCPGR
Chain of Plasminogen (P00747 581-810 limits assumed): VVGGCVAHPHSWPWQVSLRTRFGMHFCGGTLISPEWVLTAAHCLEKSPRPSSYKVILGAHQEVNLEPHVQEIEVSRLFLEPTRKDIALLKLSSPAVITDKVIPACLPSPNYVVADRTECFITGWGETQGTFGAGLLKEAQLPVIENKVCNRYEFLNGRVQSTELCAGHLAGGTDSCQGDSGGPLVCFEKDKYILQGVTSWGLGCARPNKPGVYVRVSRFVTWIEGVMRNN

Chain of Coagulation factor X (P00742 41-179 limits assumed): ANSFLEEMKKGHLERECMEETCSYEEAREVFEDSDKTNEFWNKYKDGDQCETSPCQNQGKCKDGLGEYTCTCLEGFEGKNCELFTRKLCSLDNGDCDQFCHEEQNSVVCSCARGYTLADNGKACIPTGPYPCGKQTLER
Chain of Coagulation factor X (P00742 235-488 limits assumed): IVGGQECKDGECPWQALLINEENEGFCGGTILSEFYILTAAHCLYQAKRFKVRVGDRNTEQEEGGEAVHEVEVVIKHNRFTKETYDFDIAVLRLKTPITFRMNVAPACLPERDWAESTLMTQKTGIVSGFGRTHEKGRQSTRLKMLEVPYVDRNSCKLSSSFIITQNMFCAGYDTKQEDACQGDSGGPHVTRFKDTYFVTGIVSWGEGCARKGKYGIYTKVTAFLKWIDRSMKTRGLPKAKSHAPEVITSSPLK
Chain of Tissue-type plasminogen activator (P00750 whole entry): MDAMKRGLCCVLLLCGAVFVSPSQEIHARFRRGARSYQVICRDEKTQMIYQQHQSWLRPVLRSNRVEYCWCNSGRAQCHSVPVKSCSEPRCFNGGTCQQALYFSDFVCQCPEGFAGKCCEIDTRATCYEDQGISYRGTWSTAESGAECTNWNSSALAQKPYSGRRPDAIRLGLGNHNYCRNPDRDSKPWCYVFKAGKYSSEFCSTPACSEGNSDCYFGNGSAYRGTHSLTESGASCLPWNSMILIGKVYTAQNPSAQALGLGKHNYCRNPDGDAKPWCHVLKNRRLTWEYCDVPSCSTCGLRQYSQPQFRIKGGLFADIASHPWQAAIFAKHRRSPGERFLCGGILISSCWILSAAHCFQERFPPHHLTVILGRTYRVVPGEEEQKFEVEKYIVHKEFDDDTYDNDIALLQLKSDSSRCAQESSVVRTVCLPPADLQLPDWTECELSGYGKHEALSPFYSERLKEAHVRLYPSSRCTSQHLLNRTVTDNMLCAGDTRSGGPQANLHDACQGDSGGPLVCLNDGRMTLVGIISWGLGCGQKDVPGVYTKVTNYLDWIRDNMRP

| SMILES | Ki (Prothrombin [1]) [nM] | Ki [2] [nM] | bioavailability [3] [%] | Ki (Prothrombin [4]) [nM] | Ki (Coagulation factor X) [nM] | half-life [5] [h] | Ki (Plasminogen) [nM] |
| --- | --- | --- | --- | --- | --- | --- | --- |
| NN=C(N)c1ccc(C[C@H](NS(=O)(=O)c2ccc3ccccc3c2)C(=O)N(CCO)C2CCCC2)cc1 | 7040 |  |  |  |  |  |  |
| CCN(C(=O)[C@H](Cc1ccc(C(=N)NN)cc1)NS(=O)(=O)c1ccc2ccccc2c1)C1CCCC1 | 4 |  |  |  |  |  |  |
| N=C(NN)c1ccc(C[C@H](NS(=O)(=O)c2ccc3ccccc3c2)C(=O)N2CCCCCC2)cc1 | 1470 |  |  |  |  |  |  |
| CN(C(=O)[C@H](Cc1ccc(C(=N)NN)cc1)NS(=O)(=O)c1ccc2ccccc2c1)C1CCCC1 | 1.1 | 27200 | 58 | 0.38 | 1100 | 1.87 | 47900 |
